Reference: BigSolDB 2.1

O=[N+]([O-])c1cccc(Cl)c1Cl
solubility (mole fraction)
Settings | in ethanol | in methanol | in water
278.15 K | 0.013 | 0.0122 | 1.6e-06
280.65 K | 0.0149 | 0.0137 | 2.03e-06
283.15 K | 0.0172 | 0.0157 | 2.45e-06
285.65 K | 0.0203 | 0.0182 | 2.88e-06
288.15 K | 0.0231 | 0.0206 | 3.91e-06
290.65 K | 0.0257 | 0.0232 | 4.85e-06
293.15 K | 0.0286 | 0.0258 | 5.85e-06
295.65 K | 0.0322 | 0.0288 | 6.98e-06
298.15 K | 0.0366 | 0.0315 | 8.68e-06
300.65 K | 0.0418 | 0.0343 | 1.07e-05
303.15 K | 0.0465 | 0.0376 | 1.29e-05
